Reference: ChEMBL document CHEMBL2163249, “Exploration of natural compounds as sources of new bifunctional scaffolds targeting cholinesterases and beta amyloid aggregation: the case of chelerythrine” (Bioorg Med Chem, 2012)
Structures can show the parent of a compound that is named as a salt.

Legend:
[1] = target: Cholinesterase (Equus caballus) (UniProt P81908); settings: at 2 mg/mL
Description: Inhibition of horse BChE at 2 mg/ml by Ellman's method

[2] = target: Cholinesterase (Homo sapiens, UniProt P06276); test: Inhibition of human BChE by Ellman's method
[3] = target: Cholinesterase (Equus caballus, UniProt P81908); test: Inhibition of horse BChE by Ellman's method
[4] = target: T1, Acetylcholinesterase (Electrophorus electricus, UniProt O42275); test: Inhibition of electric eel AChE by Ellman's method
[5] = Inhibition of amyloid beta (1 to 40) aggregation assessed as induction of disaggregation at 100 uM treated 4 days after formation of aggregates by thioflavin T fluorescence method
[6] = Inhibition of amyloid beta (1 to 40) aggregation assessed as induction of disaggregation treated 45 mins after formation of aggregates by thioflavin T fluorescence method
[7] = Inhibition of HFIP-induced amyloid beta (1 to 40) aggregation after 45 mins by thioflavin T fluorescence method
[8] = target: Acetylcholinesterase (Electrophorus electricus) (UniProt O42275); settings: at 2 mg/mL
Description: Inhibition of electric eel AChE at 2 mg/ml by Ellman's method

[9] = Inhibition of HFIP-induced amyloid beta (1 to 40) aggregation at 20 uM after 45 mins by thioflavin T fluorescence method
[10] = Inhibition of HFIP-induced amyloid beta (1 to 40) aggregation at 250 uM after 45 mins by thioflavin T fluorescence method
[11] = Inhibition of amyloid beta (1 to 40) aggregation assessed as induction of disaggregation at 10 uM treated 24 hrs after formation of aggregates by thioflavin T fluorescence method
[12] = Inhibition of amyloid beta (1 to 40) aggregation assessed as induction of disaggregation at 100 uM treated 24 hrs after formation of aggregates by thioflavin T fluorescence method
[13] = target: T2, Acetylcholinesterase (Homo sapiens, UniProt P22303)
Description: Inhibition of human AChE by Ellman's method

[14] = Inhibition of amyloid beta (1 to 42) aggregation
[15] = target: T1, Acetylcholinesterase; test: Uncompetitive inhibition of electric eel AChE using acetyl thiocholine iodide as substrate by Lineweaver-Burk double-reciprocal analysis
[16] = Inhibition of HFIP-induced amyloid beta (1 to 40) aggregation at 10 uM after 45 mins by thioflavin T fluorescence method
[17] = target: T1, Acetylcholinesterase; test: Competitive inhibition of electric eel AChE using acetyl thiocholine iodide as substrate by Lineweaver-Burk double-reciprocal analysis
[18] = target: T2, Acetylcholinesterase; test: Uncompetitive inhibition of human AChE using acetyl thiocholine iodide as substrate by Lineweaver-Burk double-reciprocal analysis
[19] = target: T2, Acetylcholinesterase; test: Competitive inhibition of human AChE using acetyl thiocholine iodide as substrate by Lineweaver-Burk double-reciprocal analysis

Sequence of Cholinesterase (Homo sapiens, UniProt P06276) (P06276 whole entry): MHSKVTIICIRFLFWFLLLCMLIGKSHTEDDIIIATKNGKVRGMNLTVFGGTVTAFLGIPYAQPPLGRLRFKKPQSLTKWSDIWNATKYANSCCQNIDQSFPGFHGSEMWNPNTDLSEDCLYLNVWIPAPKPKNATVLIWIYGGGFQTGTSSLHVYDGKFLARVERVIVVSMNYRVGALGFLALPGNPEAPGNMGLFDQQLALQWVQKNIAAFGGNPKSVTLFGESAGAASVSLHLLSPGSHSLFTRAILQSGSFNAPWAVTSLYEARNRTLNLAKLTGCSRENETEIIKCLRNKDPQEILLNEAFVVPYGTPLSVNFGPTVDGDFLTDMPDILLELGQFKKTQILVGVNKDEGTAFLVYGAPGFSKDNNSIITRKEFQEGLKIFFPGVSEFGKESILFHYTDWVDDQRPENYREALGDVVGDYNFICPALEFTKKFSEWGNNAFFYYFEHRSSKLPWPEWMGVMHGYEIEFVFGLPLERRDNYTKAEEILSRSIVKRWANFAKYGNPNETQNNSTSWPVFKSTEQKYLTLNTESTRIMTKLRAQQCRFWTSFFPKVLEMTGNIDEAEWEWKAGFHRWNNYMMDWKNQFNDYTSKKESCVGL
Sequence of Acetylcholinesterase (Electrophorus electricus) (O42275 24-633 limits assumed): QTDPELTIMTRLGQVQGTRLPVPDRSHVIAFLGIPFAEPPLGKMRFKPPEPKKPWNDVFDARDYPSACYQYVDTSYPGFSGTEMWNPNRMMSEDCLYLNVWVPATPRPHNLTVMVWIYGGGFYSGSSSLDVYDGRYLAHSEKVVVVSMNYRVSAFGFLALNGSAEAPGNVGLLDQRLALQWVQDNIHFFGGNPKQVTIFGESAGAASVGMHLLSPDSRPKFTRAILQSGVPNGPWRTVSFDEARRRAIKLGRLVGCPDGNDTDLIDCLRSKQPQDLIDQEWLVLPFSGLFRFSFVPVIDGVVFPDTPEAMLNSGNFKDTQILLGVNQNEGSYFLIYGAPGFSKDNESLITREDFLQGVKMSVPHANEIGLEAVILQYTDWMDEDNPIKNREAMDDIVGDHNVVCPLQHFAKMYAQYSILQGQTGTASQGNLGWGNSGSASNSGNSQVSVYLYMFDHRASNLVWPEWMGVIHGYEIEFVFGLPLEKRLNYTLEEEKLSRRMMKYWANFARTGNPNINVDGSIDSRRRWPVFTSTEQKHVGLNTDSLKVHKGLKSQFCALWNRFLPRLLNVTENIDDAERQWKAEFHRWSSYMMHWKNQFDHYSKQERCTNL
Sequence of Cholinesterase (Equus caballus) (P81908 whole entry): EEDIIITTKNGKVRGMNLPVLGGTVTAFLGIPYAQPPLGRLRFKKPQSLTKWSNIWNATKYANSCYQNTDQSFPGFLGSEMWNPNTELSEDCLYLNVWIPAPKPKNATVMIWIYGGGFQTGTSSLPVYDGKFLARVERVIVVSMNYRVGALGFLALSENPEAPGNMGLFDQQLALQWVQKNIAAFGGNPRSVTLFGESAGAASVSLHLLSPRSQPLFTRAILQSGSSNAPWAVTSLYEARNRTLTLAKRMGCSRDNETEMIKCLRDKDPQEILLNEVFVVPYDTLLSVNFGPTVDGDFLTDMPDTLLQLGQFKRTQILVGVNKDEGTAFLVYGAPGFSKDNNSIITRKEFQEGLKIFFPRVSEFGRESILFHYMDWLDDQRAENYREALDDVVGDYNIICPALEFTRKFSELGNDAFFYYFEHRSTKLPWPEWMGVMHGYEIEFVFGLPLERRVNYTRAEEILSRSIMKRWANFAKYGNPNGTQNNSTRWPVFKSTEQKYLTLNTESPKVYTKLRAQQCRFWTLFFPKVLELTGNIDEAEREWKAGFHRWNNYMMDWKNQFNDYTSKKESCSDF
Sequence of Cholinesterase (Equus caballus, UniProt P81908) (P81908 whole entry): as above
T2 sequence (P22303 whole entry): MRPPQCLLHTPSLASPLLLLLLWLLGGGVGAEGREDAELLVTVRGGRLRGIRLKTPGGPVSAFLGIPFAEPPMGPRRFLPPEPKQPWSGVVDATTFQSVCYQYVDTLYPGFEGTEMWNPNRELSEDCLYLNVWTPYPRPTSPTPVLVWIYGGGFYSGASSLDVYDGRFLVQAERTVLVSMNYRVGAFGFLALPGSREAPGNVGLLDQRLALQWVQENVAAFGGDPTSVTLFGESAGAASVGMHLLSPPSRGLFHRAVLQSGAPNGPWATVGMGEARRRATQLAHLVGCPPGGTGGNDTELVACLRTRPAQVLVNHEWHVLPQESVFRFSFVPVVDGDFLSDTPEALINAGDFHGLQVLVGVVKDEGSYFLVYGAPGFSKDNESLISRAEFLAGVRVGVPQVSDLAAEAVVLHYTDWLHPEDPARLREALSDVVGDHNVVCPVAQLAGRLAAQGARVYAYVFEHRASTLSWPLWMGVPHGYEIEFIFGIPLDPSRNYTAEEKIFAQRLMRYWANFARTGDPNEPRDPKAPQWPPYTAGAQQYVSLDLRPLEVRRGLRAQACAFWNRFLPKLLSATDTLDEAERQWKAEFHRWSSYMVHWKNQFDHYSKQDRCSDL
T1 sequence (O42275 whole entry): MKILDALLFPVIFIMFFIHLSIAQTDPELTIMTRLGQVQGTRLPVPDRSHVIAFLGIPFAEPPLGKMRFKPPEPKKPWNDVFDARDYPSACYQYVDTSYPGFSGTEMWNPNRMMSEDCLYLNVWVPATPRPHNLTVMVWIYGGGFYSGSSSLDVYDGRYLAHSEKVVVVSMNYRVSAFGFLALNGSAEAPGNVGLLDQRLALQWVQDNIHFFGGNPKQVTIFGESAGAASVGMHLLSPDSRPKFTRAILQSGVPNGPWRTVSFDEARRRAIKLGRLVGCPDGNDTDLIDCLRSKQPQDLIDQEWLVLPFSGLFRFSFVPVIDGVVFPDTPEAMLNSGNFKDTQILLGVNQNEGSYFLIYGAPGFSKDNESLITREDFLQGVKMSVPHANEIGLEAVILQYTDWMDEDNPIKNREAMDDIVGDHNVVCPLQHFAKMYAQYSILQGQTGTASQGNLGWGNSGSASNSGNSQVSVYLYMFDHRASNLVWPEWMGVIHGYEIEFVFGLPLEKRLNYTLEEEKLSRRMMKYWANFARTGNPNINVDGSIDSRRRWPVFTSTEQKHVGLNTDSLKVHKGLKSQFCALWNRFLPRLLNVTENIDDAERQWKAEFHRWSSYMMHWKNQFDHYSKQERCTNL

Row | Structure (SMILES) | inhibition [1] [%] | inhibition [8] [%] | other results
1 | CC[C@H]1CN2CCc3c([nH]c4ccccc34)[C@H]2C[C@@H]1/C(=C\OC)C(=O)OC [HIRSUTINE] | 87.1 |  | IC50 ([2]; read-out: IC50): 1.97 µM; IC50 ([3]; read-out: IC50): 4.97 µM; IC50 [4]: Not Active
2 | C=C[C@H]1C[N@@]2CC[C@H]1C[C@@H]2[C@@H](O)c1ccnc2ccc(OC)cc12 [QUINIDINE] |  |  | IC50 ([2]; read-out: IC50): 1.23 µM; IC50 ([3]; read-out: IC50): 7.37 µM
3 | CC(C)=CCC[C@]1(C)[C@@H](CC=C(C)C)C[C@]2(CC=C(C)C)C(=O)C(CC=C(C)C)=C(O)[C@@]1(C(=O)C(C)C)C2=O |  |  | inhibition [5]: 20%
4 | COc1ccc2cc3[n+](cc2c1OC)CCc1cc2c(cc1-3)OCO2 [BERBERINE CHLORIDE] |  | 79 | IC50 [6]: 106 µM; IC50 [7]: 43.8 µM; inhibition [9]: 36%; IC50 ([4]; read-out: IC50): 2.74 µM
5 | Cc1c([C@H](C)[C@@H]2NC[C@@H](C)C[C@H]2O)ccc2c1C[C@H]1[C@H]2CC=C2C[C@@H](O)CC[C@@]21C [VERATRAMINE] | 66.2 | 24.5 | IC50 ([2]; read-out: IC50): 19.5 µM; IC50 ([3]; read-out: IC50): 10.8 µM; IC50 [4]: Not Active
6 | CCC1=C[C@@H]2CN3CCc4c([nH]c5ccccc45)[C@@](C(=O)OC)(C2)[C@@H]13 [CATHARANTHINE BASE] | 75.2 | 5.28 | IC50 ([2]; read-out: IC50): 3.17 µM; IC50 ([3]; read-out: IC50): 5.17 µM; IC50 [4]: Not Active
7 | O[C@H]1CCN2Cc3ccccc3N=C12 [VASICINE] | 85.7 |  | IC50 ([2]; read-out: IC50): 3.13 µM; IC50 ([3]; read-out: IC50): 2.53 µM; IC50 [4]: Not Active
8 | c1ccc2c(c1)CN1CCCC1=N2 [DESOXYPEGANINE HYDROCHLORIDE HYDRATE] | 94.8 | 70.6 | IC50 ([3]; read-out: IC50): 11.9 µM; IC50 ([4]; read-out: IC50): 11.8 µM
9 | COc1cc2c3cc1Oc1c(OC)c(OC)cc4c1[C@@H](Cc1ccc(OC(=O)c5ccc([N+](=O)[O-])cc5)c(c1)Oc1ccc(cc1)C[C@@H]3N(C)CC2)N(C)CC4 [E6 BERBAMINE] | 0.47 |  | IC50 ([2]; read-out: IC50): 2.14 µM; IC50 ([3]; read-out: IC50): 4.2 µM; IC50 [4]: Not Active
10 | Nc1ccc(O)cc1 |  |  | inhibition [10]: 64%
11 | Oc1ccc(/C=C/c2cc(O)cc(O)c2)cc1 [RESVERATROL] | 36.8 | 15.1 | IC50 [6]: 81.8 µM; inhibition [11]: 71%; inhibition [12]: 32%
12 | C[C@@H]1OC(=O)[C@H]2C[C@H]3CCCC[C@@H]3[C@@H](/C=C/[C@H]3CCC[C@H](C)N3C)[C@@H]12 [HIMBACINE] |  | 57 | IC50 [2]: Not Active; IC50 [3]: Not Active; IC50 ([4]; read-out: IC50): 22.7 µM
13 | COc1cc2c(cc1OC)-c1cc3ccc(OC)c(OC)c3c[n+]1CC2.O.[Cl-] [PALMATINE CHLORIDE HYDRATE] | 7.47 | 72.6 | IC50 [6]: 174 µM; IC50 [7]: 92.2 µM; IC50 [13]: 1.69 µM; IC50 [3]: Not Active
14 | Oc1cccc2[nH]ccc12 |  |  | IC50 [14]: 85 µM
15 | Cl.Cl.c1ccc2c3c([nH]c2c1)[C@H]1[C@H]2CC[C@H]([C@@H]4CCCN[C@@H]42)N1CC3 | 48.7 | 20.5 | IC50 ([2]; read-out: IC50): 9.01 µM; IC50 ([3]; read-out: IC50): 10.6 µM; IC50 [4]: Not Active
16 | COc1ccc2c(c[n+](C)c3c4cc5c(cc4ccc23)OCO5)c1OC [CHELERYTHRINE CHLORIDE] | 83.5 | 75.9 | Ki [15]: 0.92 µM; IC50 [6]: 13 µM; inhibition [16]: 67%; IC50 [7]: 4.2 µM; Ki [17]: 0.48 µM; Ki [18]: 1.12 µM; IC50 ([2]; read-out: IC50): 10.3 µM; Ki [19]: 0.32 µM; IC50 [13]: 1.54 µM; IC50 ([3]; read-out: IC50): 6.33 µM; IC50 ([4]; read-out: IC50): 3.78 µM
17 | COC(=O)[C@H]1[C@H]2C[C@H]3c4[nH]c5ccccc5c4CCN3C[C@H]2CC[C@@H]1O.Cl [RAUWOLSCINE HYDROCHLORIDE] | 59.1 | 12.4 | IC50 ([2]; read-out: IC50): 13.7 µM; IC50 ([3]; read-out: IC50): 8.38 µM; IC50 [4]: Not Active
18 | C[C@@H]1CC[C@H]2[C@H](C)[C@H]3CC[C@@]4(O)[C@@H]5CC(=O)[C@H]6CC(=O)CC[C@]6(C)[C@H]5C[C@H]4[C@@H]3CN2C1 [SEVEDINDIONE] | 17 |  | IC50 ([2]; read-out: IC50): 0.27 µM; IC50 ([3]; read-out: IC50): 3.68 µM; IC50 [4]: Not Active
19 | C=C[C@H]1CN2CC[C@H]1C[C@@H]2[C@@H](O)c1ccnc2ccc(OC)cc12 [QUINIDINE] | 66 | 20.2 | IC50 [4]: Not Active
20 | OC1c2ccccc2N=C2CCCN21 (configuration not stated) [PEGANOLE] | 65.7 |  | IC50 ([2]; read-out: IC50): > 20 µM; IC50 ([3]; read-out: IC50): 11.4 µM; IC50 [4]: Not Active
21 | CO[C@H]1C=C2CCN(C)[C@H]2[C@@H]2c3cc4c(cc3C(=O)O[C@@H]21)OCO4 | -2.26 | 25.8 | 
22 | CN1[C@H]2CC(=O)C[C@@H]1C(O)C2 (some centres not stated) | -3.92 | -7.3 | 
23 | C[C@H]1[C@H](C)CC[C@]2(C(=O)O)CC[C@]3(C)C(=CC[C@@H]4[C@@]5(C)C[C@@H](O)[C@H](O)[C@@](C)(CO)[C@@H]5[C@H](O)C[C@]43C)[C@H]12 | -7.93 | -1.33 | 
24 | C=C1C(=O)[C@]23[C@H](O)[C@H]1CC[C@H]2[C@@]12CO[C@]3(O)[C@@H](O)[C@@H]1C(C)(C)CC[C@@H]2O | 0.03 | 24.7 | 

Row | Structure (SMILES) | inhibition [1] [%] | inhibition [8] [%] | other results
25 | C[C@H]1CC[C@@]2(OC1)O[C@H]1C[C@H]3[C@@H]4CC[C@@H]5C[C@@H](O)CC[C@]5(C)[C@H]4CC[C@]3(C)[C@H]1[C@@H]2C | -2.96 | -3.09 | 
26 | CC(C)=CCC/C(C)=C/COc1ccc2ccc(=O)oc2c1 | 1.5 | -3.79 | 
27 | C[C@@]12CCc3occc3[C@H]1CC[C@]13CC(=O)[C@H](CC[C@H]12)C3 | -0.09 | -5.73 | 
28 | COc1cc([C@@H]2c3cc4c(cc3[C@@H](O[C@@H]3O[C@@H]5CO[C@@H](C)O[C@H]5[C@H](O)[C@H]3O)[C@H]3COC(=O)[C@H]23)OCO4)cc(OC)c1O | -5.72 | -9.19 | 
29 | C=C1CC[C@@H]2[C@](C)(CO)[C@H](O)CC[C@@]2(C)[C@@H]1C/C=C1/C(=O)OC[C@H]1O | 8.56 | 25.1 | 
30 | CC[C@]12CCCN3CCc4c(n(c5ccccc45)[C@@](O)(C(=O)OC)C1)[C@@H]32 | 3.22 | 7.29 | 
31 | C[C@@H]1O[C@@H](Oc2c(-c3ccc(O)c(O)c3)oc3cc(O)cc(O)c3c2=O)[C@H](O)[C@H](O)[C@H]1O | -6.56 | 0.25 | 
32 | CC1=C(/C=C/C(C)=C/C=C/C(C)=C\C(=O)O)C(C)(C)CCC1 | 0.91 | 11.5 | 
33 | COc1cc2c3cc1Oc1c(OO)c(OC)cc4c1[C@H](Cc1ccc(cc1)Oc1cc(ccc1O)C[C@H]3N(C)CC2)N(C)CC4.O=S(=O)(O)O [OXYACANTHINE SULFATE] | 66.3 | 0.62 | IC50 ([2]; read-out: IC50): 1.89 µM; IC50 ([3]; read-out: IC50): 4.1 µM; IC50 [4]: Not Active
34 | CN1[C@@H]2CC[C@H]1C[C@H](O)C2 | -9.24 | 1.27 | 
35 | Oc1cc(O)c2c(c1)O[C@H](c1ccc(O)c(O)c1)[C@@H](O)C2 | -5.96 | 7.03 | 
36 | O=C(/C=C/c1ccc(O)c(O)c1)O[C@@H]1C[C@](O)(C(=O)O)C[C@@H](O)[C@H]1O | 4.8 | 10.8 | 
37 | CC1=C2C(=CO[C@H](C)[C@H]2C)C(O)=C(C(=O)O)C1=O | 11.3 | 3.11 | 
38 | COc1cc(CCC(C)=O)ccc1O | 10.8 | -5.32 | 
39 | N[C@@H](Cn1oc(=O)[nH]c1=O)C(=O)O | 2.65 | 23.1 | 
40 | C[C@H]1CC[C@]2(NC1)O[C@H]1C[C@H]3[C@@H]4CC[C@H]5C[C@@H](O)CC[C@]5(C)[C@H]4CC[C@]3(C)[C@H]1[C@@H]2C | 6.89 | 11.4 | 
41 | O=C(CCc1ccc(O)cc1)c1c(O)cc(O)cc1O | 17 | -6.41 | 
42 | COc1c2occc2cc2ccc(=O)oc12 | 8.34 | 4.4 | 
43 | CO[C@H]1/C=C/O[C@@]2(C)Oc3c(C)c(O)c4c(O)c(cc(O)c4c3C2=O)NC(=O)/C(C)=C\C=C\[C@H](C)[C@H](O)[C@@H](C)[C@@H](O)[C@@H](C)[C@H](OC(C)=O)[C@@H]1C | -3.13 | -6.18 | 
44 | OCc1c[nH]c2ccccc12 | 9.11 | -4.82 | 
45 | O=C(O)c1cc(N(Cc2ccccc2O)Cc2cc(O)ccc2O)ccc1O | 17.7 | 2.35 | 
46 | CCCCCCCCCCCCCC(=O)O[C@@H]1[C@@H](C)[C@@]2(O)[C@@H](C=C(CO)C[C@]3(O)C(=O)C(C)=C[C@@H]23)[C@@H]2C(C)(C)[C@]12OC(C)=O | -6.35 | 19.6 | 
47 | COc1cc(/C=C/c2ccccc2)oc(=O)c1 | -0.13 | -0.87 | 
